Measurements published in US11351134B2, “Small molecule agents, compositions, and formulations, for internal use, displaying inhibitory activity against gram-positive and/or gram-negative organisms” (NATUREZA, INC., priority 2017, dated 2022).
Read-outs that look alike come from different tables or passages of the source.

Experiments:
E. coli = assay: Broth microdilution MIC of lecithin/chitosan particle compositions; assay type: cell-based; conditions: maximum concentration tested 10 mg/ml; for MIC: Escherichia coli
Method: (§1) Initially, to determine basic characteristics, each active component was separately mixed, generally under agitated conditions, with water, and each was miscible with water. Each, after being mixed with water, was tested in a broth microdilution assay, against a variety of bacteria using amounts of the each of the lauric acid derivatives, ranging from about 0.0009 wt. % to about 8 wt. %. The bacteria included Escherichia coli, and Staphylococcus aureus (including MRSA strains). The minimum inhibitory concentration (MIC) needed to prevent growth of the target bacteria was evaluated based on a method published by Clinical Laboratory Standards Institute (CLSI), broth microdilution method M-07 (M07). […] Each of the samples containing one of the lauric acid derivatives was compared with a positive control, decanoic acid.
(§2) For TABLES 1 to 3, compositions were generally prepared as described above, and as further outlined in this paragraph. For these examples, the active component, as a lauric acid derivative or lauric acid, was suspended in an organic solvent, chloroform, and then mixed with water, under robust agitation. The amount of water to the amount of chloroform was at least about 2:1, and could be as high as 10:1. Chloroform was then evaporated (e.g., under vacuum using a freeze dryer). After removal of the chloroform, a 2.2% lecithin solution in an acetate buffer (e.g., 98 mM acetic acid and 2 mM sodium acetate) was prepared and added, so the final amount of the active component was about 1 part active component mixture and about 9 parts of the 2.2% lecithin solution. Of course, it is noted that other ranges to achieve final amount of the active component as described above (e.g., active component mixture and lecithin solution) may also be utilized. Cholesterol could also be optionally added. The mixture of lecithin and the active component was mixed and sonicated, and then a solution of about 1.5% chitosan was added. Thereafter, the entirety of the mixture containing the lecithin and the active component was further blended, in which a final ratio was about 1 part active component to about 9 parts of the 2.2% lecithin solution to about 10 parts of the 1.5% chitosan solution. The pH was then varied, to a pH of 5, or a pH of 7, or a pH of 9. In some mixtures having a pH of 7, a chemical agent imparting a positive charge to the chitosan was included in a form of glycol chitosan. In these tests, the chemical agent used was glycol. In these examples, the amount of chemical agent, glycol was about one molecule glycol moiety to one molecule chitosan sacharide unit; higher amounts of glycol moieties are also acceptable, while lower amounts of glycol moieties were often found to decrease overall inhibitory activity associated with a composition when formed and tested in vitro. It is noted that negatively charged chitosan containing particles were prepared. […] After mixing, the mixtures could each be filtered through a […] filter. In some tests, the mixtures were sonicated before filtering. Sonication produced small particles. In some studies, particles were freeze dried as a powder (generally, after mixing, sonicating and filtering).
(§3) The positive controls were prepared and evaluated in a similar manner. All prepared samples were tested using a broth microdilution test.

S. epidermidis = assay: as above; assay type: cell-based; conditions: Staphylococcus epidermidis; lecithin/chitosan particle composition; prep. mixture pH 5 or pH 7; maximum concentration tested 10 mg/ml; read-out: MIC (mg/ml) for S. epidermidis (chitosan prep. mixture was at pH 5 or at pH 7)
Method: as §1, §2, §3

Escherichia coli = assay: Broth microdilution (CLSI M07) of active component mixed with water only; assay type: cell-based; conditions: active component mixed with water only (miscible state); about 0.0009 wt. % to about 8 wt. %
Method: as §1

[1] = system: Staphylococcus aureus (including MRSA strains); assay: as above; assay type: cell-based; conditions: active component mixed with water only (miscible state); about 0.0009 wt. % to about 8 wt. %
Method: as §1

[2] = system: Gram-positive pathogens and Gram-negative pathogens; assay: In vitro inhibitory activity of chitosan- or carrier-containing particles; assay type: cell-based; conditions: synthesis (with chitosan) at pH 7 with positively charged chitosan
Text: as §2, §3
This also occurs when the chitosan- or carrier-containing particle includes an active component that has a log P value that is less than 4 and includes a methyl and/or ethyl side chain (e.g., 12-amino-1-dodecanoic acid methyl ester). […]

[3] = assay type: in vivo; conditions: mice, oral capsules approximately 4 mg active component in chitosan-containing particles, three times per day for seven days
Text: Laboratory trials have shown that no resistance has developed in pathogens exposed to the compositions described herein, even with long term, repeated exposure (data not shown). In addition, no intrinsic resistance can or has been detected in target pathogens. […] A placebo group is also included, in which a group of 10 mice are given a placebo set of capsules, orally, three times per day and continued for seven days, each of the placebo set of capsules containing similarly prepared chitosan-containing particles without an active component, the preparation being generally as described herein. Initial mice have been infected with Salmonella typhimurium prior to oral delivery of one of the set of capsules. The capsules may be vegetable capsules. The capsules may have an enteric coating. For delivery, a formulation may be prepared in a manner understood in the relevant art. For delivery, a formulation may be in at least any one or more of the following forms: liquid, capsule, dried powder, mist, and the like. For delivery, the formulation will contain pharmaceutical grade materials, including one or more excipients and or fillers for internal and/or topical delivery in sufficient amounts known to those of skill in the relevant art. Flavors, colors, sugars, sugar-substitutes, and the like may also be included in any of the formulations, as is understood to those of skill in the relevant art.

## COC(=O)CCCCCCCCCCCN.Cl [12-amino-1-dodecanoic acid methyl ester HCl]
E. coli; lecithin/chitosan particle composition, prep. mixture pH 9, read-out: MIC (mg/ml) for E. coli (chitosan prep. mixture was at pH 9)
  MIC: 10 mg/mL
E. coli; lecithin/glycol chitosan particle composition, prep. mixture pH 7, read-out: MIC (mg/ml) for E. coli (chitosan prep. mixture was at pH 7 with glycol chitosan)
  MIC: 0.8 mg/mL
E. coli; lecithin/chitosan particle composition, prep. mixture pH 5 or pH 7
  MIC (mg/ml) for E. coli (chitosan prep. mixture was at pH 5 or at pH 7): — (no inhibitory activity)
S. epidermidis
  MIC: 10 mg/mL
Escherichia coli
  Inhibitory activity against Gram-negative bacteria (e.g., E. coli): does not, in the miscible state, demonstrate inhibitory activity
[1]
  Inhibitory activity against Gram-positive bacteria (e.g., S. aureus): does not, in the miscible state, demonstrate inhibitory activity
[2]
  Inhibitory activity against both Gram-positive pathogens and Gram-negative pathogens: stronger inhibitory activity as well as broad spectrum activity
[3]
  Safety in animal trials: no safety concerns
